{
  "source": "patent EP0099286B1",
  "about": "“Compound containing a tripeptide sequence of the threonyl-lysyl proline-type, or similar, useful as an anti-inflammatory, anti-allergic or antalgesic agent” (INSTITUT PASTEUR DE LILLE, priority 1982, dated 1987)",
  "key": {"[1]": {"test_system": "macrophages", "assay": "Inhibition of macrophage activity (general)", "assay_type": "cell-based", "conditions": "for propriétés au terme des mêmes tests: same tests as for the tripeptide", "text": "(§1) Selon des tests effectués par les méthodes décrites dans l'article cité plus haut de \"Immunology Letters\", la L'thréonyl-L-lysyl-L-proline s'est révélée atoxique pour les cellules et inhibitrice non seulement de la libération, mais également de la synthèse de la β-glucuronidase lysosomiale. En présence du peptide, le taux intracellulaire de cette enzyme décroît également. La L-thréonyl-L-lysyl-L-proline inhibe également la stimulation des macrophages de patients allergiques par l'allergène correspondant, lorsqu'ils ont été préincubés en présence du peptide. Cette dépression est très significative (50 à 70%) dans des essais in vitro. La thréonyl-L-lysyl-L-proline présente un pouvoir inhibiteur d'environ 60% aux concentrations de 200 nanogrammes à 20 picogrammes, ce pouvoir inhibiteur étant même de 50% à 2 picogrammes. Cette inhibition par le peptide se manifeste aussi dans des essais d'activation de macrophages par des réactions (IgE)-(Anti-IgE), que ces macrophages aient été incubés auparavant in vitro en présence du peptide, ou obtenus à partir d'animaux auxquels le peptide avait antérieurement été administré par voie intraveineuse (chez le rat, à des doses de 10 µg, trois heures avant le prélèvement des cellules). La libération d'anion superoxyde par les macrophages de rats est également inhibée par le tripeptide en question. […] Le peptide administré au rat induit également une inhibition de l'anaphylaxie cutanée passive provoquée chez l'animal par les administrations successives d'un antigène et de l'antisérum correspondant."}, "[2]": {"test_system": "anaphylaxie cutanée passive", "assay": "Passive cutaneous anaphylaxis", "assay_type": "in vivo", "conditions": "rat; provoked by successive administration of antigen and corresponding antiserum", "text": "(§2) Selon des tests effectués par les méthodes décrites dans l'article cité plus haut de \"Immunology Letters\", la L'thréonyl-L-lysyl-L-proline s'est révélée atoxique pour les cellules et inhibitrice non seulement de la libération, mais également de la synthèse de la β-glucuronidase lysosomiale. En présence du peptide, le taux intracellulaire de cette enzyme décroît également. La L-thréonyl-L-lysyl-L-proline inhibe également la stimulation des macrophages de patients allergiques par l'allergène correspondant, lorsqu'ils ont été préincubés en présence du peptide. Cette dépression est très significative (50 à 70%) dans des essais in vitro. La thréonyl-L-lysyl-L-proline présente un pouvoir inhibiteur d'environ 60% aux concentrations de 200 nanogrammes à 20 picogrammes, ce pouvoir inhibiteur étant même de 50% à 2 picogrammes. Cette inhibition par le peptide se manifeste aussi dans des essais d'activation de macrophages par des réactions (IgE)-(Anti-IgE), que ces macrophages aient été incubés auparavant in vitro en présence du peptide, ou obtenus à partir d'animaux auxquels le peptide avait antérieurement été administré par voie intraveineuse (chez le rat, à des doses de 10 µg, trois heures avant le prélèvement des cellules). La libération d'anion superoxyde par les macrophages de rats est également inhibée par le tripeptide en question. […]"}, "[3]": {"test_system": "macrophages", "conditions": "macrophages challenged simultaneously by an antigen and the peptide; cited from earlier work"}, "[4]": {"test_system": "macrophages de patients allergiques", "assay": "Stimulation of macrophages of allergic patients by the corresponding allergen, in vitro", "assay_type": "cell-based", "text": "D'autre part, les macrophages alvéolaires de sujets allergiques stimulés par l'allergène correspondant sont également inhibés de manière significative (50 à 60%) s'ils ont été péalablement incubés avec des produits de l'hydrolyse des IgG par les protéases parasitaires.\nSelon des tests effectués par les méthodes décrites dans l'article cité plus haut de \"Immunology Letters\", la L'thréonyl-L-lysyl-L-proline s'est révélée atoxique pour les cellules et inhibitrice non seulement de la libération, mais également de la synthèse de la β-glucuronidase lysosomiale. En présence du peptide, le taux intracellulaire de cette enzyme décroît également. La L-thréonyl-L-lysyl-L-proline inhibe également la stimulation des macrophages de patients allergiques par l'allergène correspondant, lorsqu'ils ont été préincubés en présence du peptide. Cette dépression est très significative (50 à 70%) dans des essais in vitro. La thréonyl-L-lysyl-L-proline présente un pouvoir inhibiteur d'environ 60% aux concentrations de 200 nanogrammes à 20 picogrammes, ce pouvoir inhibiteur étant même de 50% à 2 picogrammes. […]"}, "[5]": {"test_system": "macrophages", "assay": "Macrophage activation by (IgE)-(Anti-IgE) reactions, macrophages from animals given the peptide intravenously", "assay_type": "in vivo", "conditions": "rat, intravenous, 10 µg, three hours before cell collection", "text": "as §2"}, "[6]": {"test_system": "mastocytes", "assay": "Mast cell degranulation in vitro", "assay_type": "cell-based, rats", "conditions": "pre-incubated with peptide; stimulants polymyxine or phytohémagglutinine"}, "[7]": {"test_system": "macrophages", "assay": "Macrophage activation by (IgE)-(Anti-IgE) reactions, macrophages pre-incubated in vitro with the peptide", "assay_type": "cell-based", "conditions": "macrophages incubated beforehand in vitro with the peptide", "text": "as §2"}, "[8]": {"test_system": "β-glucuronidase lysosomiale", "assay": "Release and synthesis of lysosomal β-glucuronidase by macrophages", "assay_type": "cell-based", "text": "as §1"}, "[9]": {"test_system": "cellules", "assay": "Toxicity for the cells", "assay_type": "cell-based", "conditions": "methods of the cited Immunology Letters article", "text": "as §2"}, "[10]": {"test_system": "macrophages de rats", "assay": "Superoxide anion release by macrophages", "assay_type": "cell-based", "text": "as §2"}},
  "note": "Residues, ends and D or L forms follow the SMILES beside them.",
  "data": [
    {"smiles": "N=C(N)NCCC[C@H](NC(=O)[C@@H]1CCCN1C(=O)[C@@H](N)CCCCN)C(=O)O", "note": "[L-lysyl-L-prolyl-L-arginine, reference compound] (H-Lys-Pro-Arg-OH)", "values": [
      {"measurement": "activité à l'égard de l'activité des macrophages", "setting": "[1]", "result": "n'est pas active"}
    ]},
    {"smiles": "C[C@@H](O)[C@H](N)C(=O)N[C@@H](CCCCN)C(=O)N1CCC[C@H]1C(=O)O", "note": "[L-thréonyl-L-lysyl-L-proline] (H-Thr-Lys-Pro-OH)", "values": [
      {"measurement": "inhibition de l'anaphylaxie cutanée passive", "setting": "[2]", "result": "inhibition"},
      {"measurement": "propriété d'activer les macrophages", "setting": "[3]", "result": "abolition"},
      {"measurement": "pouvoir inhibiteur", "setting": "[4]; 2 picogrammes", "result": 50, "unit": "%"},
      {"measurement": "pouvoir inhibiteur", "setting": "[4]; concentrations de 200 nanogrammes à 20 picogrammes", "result": "~60", "unit": "%"},
      {"measurement": "inhibition de l'activation de macrophages par des réactions (IgE)-(Anti-IgE)", "setting": "[5]", "result": "inhibition"},
      {"measurement": "dégranulation des mastocytes", "setting": "[6]", "result": "inhibition sensible"},
      {"measurement": "inhibition de l'activation de macrophages par des réactions (IgE)-(Anti-IgE)", "setting": "[7]", "result": "inhibition"},
      {"measurement": "libération de la β-glucuronidase lysosomiale", "setting": "[8]", "result": "inhibitrice"},
      {"measurement": "synthèse de la β-glucuronidase lysosomiale", "setting": "[8]", "result": "inhibitrice"},
      {"measurement": "taux intracellulaire de cette enzyme", "setting": "[8]; β-glucuronidase, in presence of the peptide", "result": "décroît"},
      {"measurement": "toxicité pour les cellules", "setting": "[9]", "result": "atoxique"},
      {"measurement": "libération d'anion superoxyde par les macrophages de rats", "setting": "[10]", "result": "inhibée"},
      {"measurement": "activité à l'égard de l'activité des macrophages", "setting": "[1]", "result": "activité inhibitrice semblable"}
    ]},
    {"smiles": "C[C@@H](O)[C@H](N)C(=O)N[C@@H](CCCCN)C(=O)N1CCC[C@H]1C(N)=O", "note": "[dérivé amidé, amide de la thréonyl-lysylproline] (H-Thr-Lys-Pro-NH2)", "values": [
      {"measurement": "propriétés au terme des mêmes tests", "setting": "[1]", "result": "essentiellement les mêmes propriétés"}
    ]},
    {"smiles": "CC(=O)N[C@H](C(=O)N[C@@H](CCCCN)C(=O)N1CCC[C@H]1C(=O)O)[C@@H](C)O", "note": "[dérivé N-acétylé] (Ac-Thr-Lys-Pro-OH)", "values": [
      {"measurement": "propriétés au terme des mêmes tests", "setting": "[1]", "result": "essentiellement les mêmes propriétés"}
    ]}
  ]
}
